{"source": "patent US9006454B2", "about": "“Dihydroorotate dehydrogenase inhibitors” (Merck Serono S.A., priority 2009, dated 2015)", "key": {"DHODH": {"target": "DHODH (Homo sapiens (Human), UniProt Q02127)", "sequence (Q02127 whole entry)": "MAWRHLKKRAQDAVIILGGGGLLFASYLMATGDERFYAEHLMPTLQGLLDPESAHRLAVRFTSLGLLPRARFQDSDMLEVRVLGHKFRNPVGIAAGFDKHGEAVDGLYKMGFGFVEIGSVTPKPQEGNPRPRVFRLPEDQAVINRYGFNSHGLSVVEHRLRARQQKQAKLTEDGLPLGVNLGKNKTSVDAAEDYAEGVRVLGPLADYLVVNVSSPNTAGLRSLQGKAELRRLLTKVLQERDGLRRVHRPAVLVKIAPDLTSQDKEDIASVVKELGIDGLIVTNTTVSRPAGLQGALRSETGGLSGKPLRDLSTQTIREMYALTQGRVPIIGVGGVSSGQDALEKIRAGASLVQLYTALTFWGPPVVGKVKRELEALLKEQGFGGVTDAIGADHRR", "experiment": "DHODH activity assay (coupled enzyme assay, DCIP reduction, absorbance at 610 nm)", "type": "biochemical", "conditions": "for inhibition at 10 µM: compound at 10 uM, read-out: inh @ 10 uM hDHODH (%)", "method": "The DHODH activity assay is a coupled enzyme assay in which oxidation of DHO and subsequent reduction of ubiquinone are stoichiometrically equivalent to the reduction of DCIP ([…]). The reduction of DCIP is accompanied by a loss of absorbance at 610 nm.\nBuffer Preparation: 50 mM tris HCl, 150 mM KCl, and pH 8.0, 0.8% triton.\n5 μL of Dimethyl sulfoxide or a compound of formula I in DMSO solution was added to the wells of a 96 well plate. Compounds of formula I were measured at 10 μM.\nProtein along with buffer was added, so that the total volume including the DMSO was 87 μL. Compound and protein were incubated for half an hour at room temperature after mixing. 5 μL of 20 mM solution of L-Dihydroorotic acid, 5 μL of 2 mM solution of Decylubiquinone and 3 μL of 2 mM solution of 2,6-Dichloroindophenol sodium salt hydrate were added to the above solution (total assay volume 100 μL). The mixture was stirred for 2 min and absorbance was recorded at every 10 min at 610 nanometers.\nPercent Inhibition is Calculated as Follows\nPositive control contains DMSO, buffer, enzyme and substrates\nNo Enzyme reaction contains DMSO, buffer and substrates\nIC50 determination: • A 2 mM DMSO stock of the compound of formula I to be examined was prepared. ⅓rd dilutions were made as follows:\n5 μL of each stock of compound of formula I (solution indicated in column 4 of table) was used for each 100 μL assay. Therefore, 5 μL of the 2 mM stock provided 100 μL of 100 μM solution of compound of formula I, when made up with buffer, protein and substrate. See also: Ulrich et al. (2001) Eur. J. Biochem. 268, 1861-1868."}, "Jurkat cells": {"system": "Jurkat cells", "experiment": "Measurement of cell proliferation (Jurkat cell), XTT assay", "type": "cell-based", "conditions": "Homo sapiens, Jurkat; for inhibition at 1 µM: compound at 1 uM, read-out: % inh Jurkat_cells @ 1 uM (%); for EC50: 72 h, XTT cell viability", "method": "See also Roehm, N et al [1991] An improved colorimetric assay for cell proliferation and viability utilizing the tetrazolium salt XTT. J. Immunol. Methods 142:257-265.\nCulture Jurkat cells in T-25 flasks at a density of 0.2×10^6/ml 2-3 days before the day of experiment set up.\nCentrifuge Jurkat T-cell suspension at 1200 rpm for 10 minutes and resuspend cells again in fresh RPMI medium with 10% FBS.\nCount the cells and dilute suspension to a density of 2×10^6 cells/ml. Seed 50 μL of this suspension in each well of a 96 well plate (100,000 cells per well). Keep the edges of the plate empty to avoid evaporation.\nSerially dilute DMSO stocks of compounds to get different concentrations for an EC50 curve. 50 μL of compound diluted in media (2× concentration required in well) is added to each well. DMSO concentration should be kept constant at 0.25-0.5% for all wells.\nTypically, for all compounds with IC50<1 μM, compound concentration can start at 10 μM followed by half log dilutions for a total of 8-10 concentrations. Each concentration has to be tested in triplicate.\nInclude controls such as cells without compound (with same DMSO concentration as compound wells), and media control\nIncubate the 96 well plate in a CO2 incubator at 37° C. for 72 hrs before determining cell viability using XTT assay\nXTT assay: to each well, add 50 μL of 1 mg/ml XTT solution with 20 μl of PMS/mL. Read the plates after 2 hours at 465 nm using the spectrophotometer. XTT reading for media without cells is used as background reading.\nCalculate % cell viability assuming that the cells without compound are 100% viable.\nPlot % cell viability as a function of concentration and determine EC50 by using software such as Graph Pad Prism to fit the curve."}}}
{"smiles": "Cc1cc(C(=O)O)c2nc(-c3ccc(-c4cccc(NC(=O)C5CCCN5)c4)cc3)[nH]c2c1", "note": "(centres unmarked) [I150]", "values": [{"measurement": "inhibition at 10 µM", "setting": "DHODH", "result": 30.5, "unit": "%"}, {"measurement": "inhibition at 1 µM", "setting": "Jurkat cells", "result": 15.4, "unit": "%"}]}
{"smiles": "O=C(O)c1cccc2[nH]c(-c3ccc(-c4ccccc4)cc3)nc12", "note": "[I1]", "values": [{"measurement": "IC50", "setting": "DHODH", "result": 795, "unit": "nM"}, {"measurement": "inhibition at 10 µM", "setting": "DHODH", "result": 93.9, "unit": "%"}, {"measurement": "EC50", "setting": "Jurkat cells", "result": 645, "unit": "nM"}]}
{"smiles": "O=C(O)c1cccc2nc(-c3c(F)c(F)c(-c4ccccc4OCc4ccccc4)c(F)c3F)[nH]c12", "note": "[I101]", "values": [{"measurement": "IC50", "setting": "DHODH", "result": 707, "unit": "nM"}, {"measurement": "inhibition at 10 µM", "setting": "DHODH", "result": 82.2, "unit": "%"}, {"measurement": "inhibition at 1 µM", "setting": "Jurkat cells", "result": 60.1, "unit": "%"}]}
{"smiles": "O=C(O)c1cc(Cl)cc2nc(-c3ccc(-c4ccccc4)cc3)[nH]c12", "note": "[I35]", "values": [{"measurement": "IC50", "setting": "DHODH", "result": 994, "unit": "nM"}, {"measurement": "inhibition at 10 µM", "setting": "DHODH", "result": 92.9, "unit": "%"}, {"measurement": "EC50", "setting": "Jurkat cells", "result": 746, "unit": "nM"}, {"measurement": "inhibition at 1 µM", "setting": "Jurkat cells", "result": 56.4, "unit": "%"}]}
{"smiles": "Cc1cc(C(=O)O)c2nc(-c3ccc(-c4ccc(Oc5ccccc5C(=O)O)cc4)cc3)[nH]c2c1", "note": "[I137]", "values": [{"measurement": "IC50", "setting": "DHODH", "result": 2240, "unit": "nM"}, {"measurement": "inhibition at 10 µM", "setting": "DHODH", "result": 65.1, "unit": "%"}, {"measurement": "inhibition at 1 µM", "setting": "Jurkat cells", "result": 31, "unit": "%"}]}
{"smiles": "Cc1cc(C(=O)O)c2nc(-c3ccc(-c4ccc(OCCCN5CCCCC5)cc4)cc3)[nH]c2c1", "note": "[I88]", "values": [{"measurement": "IC50", "setting": "DHODH", "result": 1630, "unit": "nM"}, {"measurement": "inhibition at 10 µM", "setting": "DHODH", "result": 82.9, "unit": "%"}, {"measurement": "inhibition at 1 µM", "setting": "Jurkat cells", "result": 40.3, "unit": "%"}]}
{"smiles": "Cc1cc(C(=O)O)c2nc(-c3ccc(-c4ccc(Oc5ccccc5C#N)cc4)cc3)[nH]c2c1", "note": "[I112]", "values": [{"measurement": "IC50", "setting": "DHODH", "result": 2030, "unit": "nM"}, {"measurement": "inhibition at 10 µM", "setting": "DHODH", "result": 85, "unit": "%"}, {"measurement": "inhibition at 1 µM", "setting": "Jurkat cells", "result": 49, "unit": "%"}]}
{"smiles": "Cc1cc(C(=O)O)c2[nH]c(-c3ccc(-c4ccccc4F)cc3)nc2c1", "note": "[I26]", "values": [{"measurement": "IC50", "setting": "DHODH", "result": 373, "unit": "nM"}, {"measurement": "inhibition at 10 µM", "setting": "DHODH", "result": 93.9, "unit": "%"}, {"measurement": "EC50", "setting": "Jurkat cells", "result": 105, "unit": "nM"}, {"measurement": "inhibition at 1 µM", "setting": "Jurkat cells", "result": 75.9, "unit": "%"}]}
{"smiles": "O=C(O)c1cccc2[nH]c(-c3ccc(N4CCCCCC4=O)cc3)nc12", "note": "[I81, 2-[4-(2-Oxo-azepan-1-yl)-phenyl]-1H-benzoimidazole-4-carboxylic acid]", "values": [{"measurement": "inhibition at 10 µM", "setting": "DHODH", "result": 17.9, "unit": "%"}, {"measurement": "inhibition at 1 µM", "setting": "Jurkat cells", "result": 6.7, "unit": "%"}]}
{"smiles": "O=C(O)c1cc(F)cc2nc(-c3ccc4[nH]ccc4c3)[nH]c12", "note": "[I36]", "values": [{"measurement": "inhibition at 10 µM", "setting": "DHODH", "result": 16.1, "unit": "%"}, {"measurement": "inhibition at 1 µM", "setting": "Jurkat cells", "result": 7.7, "unit": "%"}]}
{"smiles": "O=C(O)c1cccn2cc(-c3ccc(-c4ccccc4)cc3)nc12", "note": "[I138]", "values": [{"measurement": "IC50", "setting": "DHODH", "result": 3800, "unit": "nM"}, {"measurement": "inhibition at 10 µM", "setting": "DHODH", "result": 76.1, "unit": "%"}, {"measurement": "inhibition at 1 µM", "setting": "Jurkat cells", "result": 44.8, "unit": "%"}]}
{"smiles": "Cc1cc(C(=O)O)c2[nH]c(-c3ccc(-c4c(F)cccc4F)cc3)nc2c1", "note": "[I76, 2-(2′,6′-Difluoro-biphenyl-4-yl)-6-methyl-3H-benzoimidazole-4-carboxylic acid]", "values": [{"measurement": "IC50", "setting": "DHODH", "result": 344, "unit": "nM"}, {"measurement": "inhibition at 10 µM", "setting": "DHODH", "result": 100, "unit": "%"}, {"measurement": "inhibition at 1 µM", "setting": "Jurkat cells", "result": 83.5, "unit": "%"}]}
{"smiles": "COc1cc(-c2ccccc2)ccc1-c1nc2c(C(=O)O)cc(C)cc2[nH]1", "note": "[I46]", "values": [{"measurement": "IC50", "setting": "DHODH", "result": 1180, "unit": "nM"}, {"measurement": "inhibition at 10 µM", "setting": "DHODH", "result": 97.7, "unit": "%"}, {"measurement": "inhibition at 1 µM", "setting": "Jurkat cells", "result": 57.1, "unit": "%"}]}
{"smiles": "Cc1ccc(C)n1-c1c(F)c(F)c(-c2nc3cccc(C(=O)O)c3[nH]2)c(F)c1F", "note": "[I110]", "values": [{"measurement": "IC50", "setting": "DHODH", "result": 110, "unit": "nM"}, {"measurement": "inhibition at 10 µM", "setting": "DHODH", "result": 106, "unit": "%"}, {"measurement": "inhibition at 1 µM", "setting": "Jurkat cells", "result": 97, "unit": "%"}]}
{"smiles": "O=C(O)c1cccc2[nH]c(-c3c(F)c(F)c(-c4ccc(OCc5ccccc5)cc4)c(F)c3F)nc12", "note": "[I132]", "values": [{"measurement": "IC50", "setting": "DHODH", "result": 378, "unit": "nM"}, {"measurement": "inhibition at 10 µM", "setting": "DHODH", "result": 91.5, "unit": "%"}, {"measurement": "inhibition at 1 µM", "setting": "Jurkat cells", "result": 67.8, "unit": "%"}]}
{"smiles": "Cc1cc(C(=O)O)c2nc(-c3ccc(-c4ccccc4)cc3)[nH]c2c1", "note": "[I14]", "values": [{"measurement": "IC50", "setting": "DHODH", "result": 304, "unit": "nM"}, {"measurement": "inhibition at 10 µM", "setting": "DHODH", "result": 102, "unit": "%"}, {"measurement": "EC50", "setting": "Jurkat cells", "result": 263, "unit": "nM"}, {"measurement": "inhibition at 1 µM", "setting": "Jurkat cells", "result": 76.9, "unit": "%"}]}
{"smiles": "N#Cc1ccc(Oc2ccc(-c3ccc(-c4nc5c(C(=O)O)cccc5[nH]4)cc3)cc2)cc1", "note": "[I179]", "values": [{"measurement": "inhibition at 10 µM", "setting": "DHODH", "result": 45.8, "unit": "%"}, {"measurement": "inhibition at 1 µM", "setting": "Jurkat cells", "result": 10.1, "unit": "%"}]}
{"smiles": "Cc1cc(C(=O)O)c2[nH]c(-c3ccc(-c4ccc(OCCC5CCNCC5)cc4)cc3)nc2c1", "note": "[I95]", "values": [{"measurement": "IC50", "setting": "DHODH", "result": 6010, "unit": "nM"}, {"measurement": "inhibition at 10 µM", "setting": "DHODH", "result": 58.7, "unit": "%"}, {"measurement": "inhibition at 1 µM", "setting": "Jurkat cells", "result": 14.3, "unit": "%"}]}
{"smiles": "Cc1cc(C(=O)O)c2nc(-c3ccc(-c4ccc(OCCCN5CCCC5)cc4)cc3)[nH]c2c1", "note": "[I152]", "values": [{"measurement": "inhibition at 10 µM", "setting": "DHODH", "result": 47.2, "unit": "%"}, {"measurement": "inhibition at 1 µM", "setting": "Jurkat cells", "result": 23.8, "unit": "%"}]}
{"smiles": "Cc1cc(C(=O)O)c2[nH]c(-c3ccc(Oc4ccccc4)cc3)nc2c1", "note": "[I67]", "values": [{"measurement": "IC50", "setting": "DHODH", "result": 3410, "unit": "nM"}, {"measurement": "inhibition at 10 µM", "setting": "DHODH", "result": 74.2, "unit": "%"}, {"measurement": "inhibition at 1 µM", "setting": "Jurkat cells", "result": 29.3, "unit": "%"}]}
{"smiles": "Cc1cc(C(=O)O)c2nc(-c3ccc(-c4cccnc4)cc3)[nH]c2c1", "note": "[I59]", "values": [{"measurement": "IC50", "setting": "DHODH", "result": 407, "unit": "nM"}, {"measurement": "inhibition at 10 µM", "setting": "DHODH", "result": 99.2, "unit": "%"}, {"measurement": "EC50", "setting": "Jurkat cells", "result": 450, "unit": "nM"}, {"measurement": "inhibition at 1 µM", "setting": "Jurkat cells", "result": 73.5, "unit": "%"}]}
